# Source: patent US7078499B2, “Nucleotide analogues comprising a reporter moiety and a polymerase enzyme blocking moiety” (GE Healthcare UK Limited, priority 2000, dated 2006)
# Target: T1, Tth DNA polymerase (Thermus thermophilus, UniProt P52028)
# T1 construct: purchased APBiotech
# Test: Thermostable polymerase under reverse transcription conditions, Tth
# Assay type: biochemical
# Parameters: key to result of incorporation (termination / further chain extension): T: Incorporation results in termination; E: Incorporation permits further chain extension; T/E: Predominant product is primer extended by one base, but evidence of some further extension also observed; key to primer extended by at least one base within assay time (grade): −: No extension within assay time; +/−: up to 25% of primer extended by at least one base within assay time; +: up to 50% of primer extended by at least one base within assay time; ++: up to 75% of primer extended by at least one base within assay time; +++: essentially all primer extended by at least one base within assay time
# Details: RNA template, 2.5 mM Manganese ions; for primer extended by at least one base within assay time (grade): Tth reaction buffer
# Description: DNA polymerase assays were performed using Sequence 1 as primer and Sequence 2 as template. • Sequence 1 5′[Cy3]TAACTCATTAACAGGATC 3′ • Sequence 2 5′AT TCGCGGTATTCTGGTATGAAGCTTTTAGATCCTGTTAATGAGTTA GTA3′
# The template (Sequence 2) was designed such that the base (underlined) immediately adjacent to the 3′ end of the hybridised primer is complementary to the nucleotide test compound. Nucleotide test compounds were compounds (6) (4′-C-(glycylaminomethyl)thymidine triphosphate), (8) (4′-C-(N-trifluoroacetyaminomethyl)thymidine triphosphate) and (9) (4′-C-(aminomethyl)thymidine triphosphate) as described above.
# Primer extension reactions were performed using the above primers in the presence of 40 to 80 μM of nucleotide triphosphates. Positive control reactions contained all four native nucleotide triphosphates. For the other reactions the TTP was replaced with either a 2:1 ratio of […] for the terminator control, or entirely by the test compound The enzymes were used at a final concentration of 0.175 units/μl and a magnesium ion concentration of 2.5 mM in buffers supplied by the manufacturer. The primer and template concentrations were 0.5 pmol/μl and 2 pmol/μl respectively.
# Extension reactions with thermophilic enzymes were performed by initially denaturing the fully assembled reactions at 70° C. for 5 min. followed by 45° C. for 20–40 minutes. The following enzymes were used: Taq DNA polymerase (Taq); Thermosequenase (TS); Thermosequenase II (TSII); Thermosequenase E (TSE), Tfl DNA polymerase (Tfl); Tth DNA polymerase (Tth), deltaTts DNA polymerase (deltaTts), deltaTts D DNA polymerase (dettaTTSD) (all from APBiotech); Pfu DNA polymerase (Pfu) (Stratagene Ltd); Vent™ DNA polymerase (Vent) (New England Biolabs).
# Reverse transcriptase reactions were performed essentially as described above for thermophilic and mesophilic enzymes. The template for these reactions was the RNA equivalent of sequence 2. All the thermophilic enzymes were assayed in Tth reaction buffer (Cambio Ltd, Cambridge UK) containing 2.5 mM Manganese ions. The following enzymes were used: Thermosequenase (TS1); Thermosequenase II (TSII); delta Tts DNA polymerase (deltaTts); delta Tts D DNA polymerase (deltaTtsD) (all from APBiotech); Retrotherm reverse transcriptase (Retroth) (Cambio Ltd); Tth DNA polymerase (Tth) (Cambio Ltd.).
# The reactions were stopped by adding a 0.5 volume aliquot of 80% formamide containing 0.1% (w/v) bromophenol blue and 0.1% (w/v) cresol blue. The reaction products were separated by denaturing gel electrophoresis at a constant power of 45 W on 16% polyacrylamide gels containing 50% urea.
# Gels were scanned for Cy3 fluorescence on a Molecular Dynamics Fluorimager and the data analysed using Molecular Dynamics ImageQuant 5 software.
# The incorporation of a test nucleotide triphosphate results in the appearance on a polyacrylamide gel of a single band corresponding to a single base extension product. If, however, the enzyme adds additional bases then further bands would be observed that corresponded to either the full-length product or positions of other complementary bases in the template.
# T1 sequence (P52028 whole entry): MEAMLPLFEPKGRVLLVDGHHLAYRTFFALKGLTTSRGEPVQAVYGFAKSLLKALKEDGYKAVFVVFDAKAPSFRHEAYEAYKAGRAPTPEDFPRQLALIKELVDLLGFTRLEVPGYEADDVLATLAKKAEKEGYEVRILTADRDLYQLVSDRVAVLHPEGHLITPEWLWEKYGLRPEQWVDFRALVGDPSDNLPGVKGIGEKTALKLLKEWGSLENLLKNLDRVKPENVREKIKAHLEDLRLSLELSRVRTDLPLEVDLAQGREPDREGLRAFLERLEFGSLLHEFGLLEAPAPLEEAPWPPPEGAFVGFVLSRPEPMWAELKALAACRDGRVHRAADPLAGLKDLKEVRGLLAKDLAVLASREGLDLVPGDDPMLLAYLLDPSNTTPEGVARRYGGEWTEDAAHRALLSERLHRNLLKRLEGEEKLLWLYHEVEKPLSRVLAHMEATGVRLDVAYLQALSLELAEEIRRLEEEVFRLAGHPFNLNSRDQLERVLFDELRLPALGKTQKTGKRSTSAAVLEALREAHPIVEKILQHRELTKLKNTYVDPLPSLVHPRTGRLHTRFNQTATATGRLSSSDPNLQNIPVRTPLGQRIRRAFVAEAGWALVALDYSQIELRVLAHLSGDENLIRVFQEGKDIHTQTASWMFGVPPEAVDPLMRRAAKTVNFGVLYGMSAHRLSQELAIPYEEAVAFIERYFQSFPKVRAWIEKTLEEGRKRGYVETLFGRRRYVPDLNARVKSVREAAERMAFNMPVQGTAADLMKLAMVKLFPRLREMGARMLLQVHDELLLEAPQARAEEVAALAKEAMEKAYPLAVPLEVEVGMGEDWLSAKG
Molecule,result of incorporation (termination / further chain extension),primer extended by at least one base within assay time (grade)
4′-C-(Aminomethyl)thymidine triphosphate [compound (9)],T,+++
"Cc1cn([C@H]2C[C@H](O)[C@@](CNC(=O)C(F)(F)F)(COP(=O)(O)OP(=O)(O)OP(=O)(O)O)O2)c(=O)[nH]c1=O [compound (8), 4′-C-(N-trifluoroacetylaminomethyl)thymidine triphosphate]",T,+++
4′-C-(Glycylaminomethyl)thymidine triphosphate [compound (6)],T,+++
